Legend:
[1] = both, Sprague-Dawley (SD), rat, in vivo, 14 days
Description: The treatment group each includes 16 rats, and the vehicle control group includes 10 rats, with a half of male rats and a half of female rats. The drug at corresponding concentrations and the vehicle were administered to the rats through oral gavage daily for 14 consecutive days. The rats were allowed to recover for 7 days. During the administration period, general conditions, body weight and food intake were detected for each group. After the administration period and the recovery period, hematology test, serum biochemistry test and gross anatomical examination were performed for each group.

NE enzyme = details: cited from earlier work
[2] = tested on: LPS-induced acute lung injury; details: cited from earlier work

Cn1c(=O)oc2ccc(-c3ccc(C[C@@H](C#N)NC(=O)[C@@H]4CNCCCO4)c(F)c3)cc21 [Compound A, (S)—N—((S)-1-cyano-2-(2-fluoro-4-(3-methyl-2-oxo-2,3-dihydrobenzo[d]oxazol-5-yl)phenyl)ethyl)-1,4-oxazepane-2-carboxamide]
Toxicity compared at the same dose [1]: less toxic than INS1007 | Inhibition of NE enzyme activity in rat bone marrow (NE enzyme): significantly inhibit NE enzyme activity in rat bone marrow | Effect on LPS-induced acute lung injury in mice [2]: mitigate LPS-induced acute lung injury in mice
